These results are taken from US11523607B2, “Sperm storage media comprising MHY 1485 for enhancing sperm quality and function” (UNIVERSIDADE DO PORTO, priority 2017, dated 2022).

Format in all cases: cell-based
Series [1] deals with Human spermatozoa. As to the kind of experiment: Human spermatozoa viability after storage (eosin-nigrosin staining). The conditions noted are these: 2 μg/mL in Sperm Preparation Medium, 37° C. The protocol:
(§1) FIG. 1—Human spermatozoa viability after storage during 120 minutes at 37° C. Spermatozoa were stored in Sperm Preparation Medium (ORIGIO, Måløv, Denmark) not supplemented (Control) or supplemented with an mTOR activator (MHY 1485). Spermatozoa were also incubated with an mTOR inhibitor (Rapamycin; Rap) as a negative control. Viability was assessed by the eosin-nigrosin staining method. Results are presented as mean±standard error of the mean (n=12); Significant results (P<0.05) are indicated as *-vs. Control.
(§2) We evaluated the use of an mTOR activator (MHY 1485) as an additive during sperm storage at 37° C. […] We assessed key sperm quality parameters, namely sperm viability and sperm motility, using standard methods, as described by the guidelines of the World Health Organization, with the supervision of a certified embryologist. We also evaluated the oxidative damages to sperm DNA (DNA fragmentation), proteins (protein carbonylation) and lipids (lipid peroxidation). Sperm DNA fragmentation was assessed using the Halosperm® kit (Halotech DNA SL, Madrid, Spain). Sperm protein carbonylation and lipid peroxidation were evaluated using specific antibodies (ABCAM®, Cambridge, USA) raised against 2,4-dinitrophenol groups and anti-4-hydroxynonenal groups (respectively). […]

Series [2] deals with Human spermatozoa. Briefly: Human spermatozoa lipid peroxidation after storage (immunoblot). The conditions noted are these: 2 μg/mL, 37° C., 120 minutes storage. The protocol:
(§3) FIG. 6—Human spermatozoa oxidative damage to proteins (carbonylation) and lipids (peroxidation) after storage for 120 minutes at 37° C. Spermatozoa were stored in Sperm Preparation Medium (ORIGIO, Måløv, Denmark) not supplemented (Control) or supplemented with an mTOR activator (MHY 1485). Spermatozoa were also incubated with an mTOR inhibitor (Rapamycin; Rap) as a negative control. Protein carbonylation was assessed by immunobloting a specific @DNP antibody (SigmaAldrich, St. Louis, Mo., USA). Lipid peroxidation was assessed by immunobloting a specific @HNE antibody (Merck Millipore, Temecula, USA). […]
as §2

Series [3] relates to Human spermatozoa. Briefly: Human spermatozoa motility after storage. To be noted: 2 μg/mL in Sperm Preparation Medium, 37° C. The protocol: FIG. 2—Human spermatozoa motility after storage during 120 minutes at 37° C. Spermatozoa were stored in Sperm Preparation Medium (ORIGIO, Måløv, Denmark) not supplemented (Control) or supplemented with an mTOR activator (MHY 1485). Spermatozoa were also incubated with an mTOR inhibitor (Rapamycin; Rap) as a negative control. Results are presented as mean±standard error of the mean (n=12); Significant results (P<0.05) are indicated as *-vs. Control.
as §2

Series [4] concerns Human spermatozoa. As to the kind of experiment: Human spermatozoa protein carbonylation after storage (immunoblot). To be noted: 2 μg/mL, 37° C., 120 minutes storage. The protocol:
as §3, §2

Series [5] relates to Human spermatozoa. As to the kind of experiment: Human spermatozoa metabolism during storage (glucose consumption, lactate production by 1H-NMR). To be noted: 2 μg/mL, 37° C. The protocol: FIG. 3—Human spermatozoa metabolism during storage for 120 minutes at 37° C. Spermatozoa were stored in Sperm Preparation Medium (ORIGIO, Måløv, Denmark) not supplemented (Control) or supplemented with an mTOR activator (MHY 1485). Spermatozoa were also incubated with an mTOR inhibitor (Rapamycin; Rap) as a negative control. Sperm glucose consumption and lactate production were assessed by 1H nuclear magnetic resonance. Results are presented as mean±standard error of the mean (n=12); Significant results (P<0.05) are indicated as *-vs. Control.
We evaluated the use of an mTOR activator (MHY 1485) as an additive during sperm storage at 37° C. We added the mTOR activator (at a concentration of 2 μg/mL) to a commercial sperm storage medium (Sperm Preparation Medium®; Origio, Malay, Denmark) and stored the spermatozoa suspension (2 million spermatozoa per mL) in microtubes (at 37° C. in a 5% CO2 incubator) for up to 120 minutes, evaluating key parameters of quality and the degree of oxidative damages to those cells at regular intervals (0, 30 and 120 minutes). We assessed key sperm quality parameters, namely sperm viability and sperm motility, using standard methods, as described by the guidelines of the World Health Organization, with the supervision of a certified embryologist. We also evaluated the oxidative damages to sperm DNA (DNA fragmentation), proteins (protein carbonylation) and lipids (lipid peroxidation). Sperm DNA fragmentation was assessed using the Halosperm® kit (Halotech DNA SL, Madrid, Spain). Sperm protein carbonylation and lipid peroxidation were evaluated using specific antibodies (ABCAM®, Cambridge, USA) raised against 2,4-dinitrophenol groups and anti-4-hydroxynonenal groups (respectively). The metabolic alterations of spermatozoa were also evaluated by means of the proton magnetic resonance technique (1H-NMR), using a Varian 600 MHz spectrometer equipped with a 3 mm indirect detection probe with z-gradient (Varian, Palo Alto, USA). At the end of the storage, we evaluated the capacitation potential of the spermatozoa, by incubating the cells in a commercial medium (Lifeglobal®, Guilford, USA) and assessing the 3-nitrotyrosine levels using specific antibodies (ABCAM®, Cambridge, USA). An mTOR inhibitor (Rapamycin at a concentration of 0,1 μg/mL) was used as a negative control.

Series [6] concerns Human spermatozoa. As to the kind of experiment: Human spermatozoa capacitation after storage. The conditions noted are these: 2 μg/mL in Sperm Preparation Medium, 37° C. The protocol: as §1, with “4—Human” for “1—Human”, “capacitation” for “viability”, “for” for “during”, “Sperm capacitation” for “Viability”, “evaluating sperm phosphotyrosine levels after 180 minutes incubation in Sperm Capacitation Medium (LifeGlobal Europe, Brussels, Belgium).” for “the eosin-nigrosin staining method.”
as §2

Series [7] deals with Human spermatozoa. As to the kind of experiment: Human spermatozoa DNA fragmentation after storage (Halosperm kit). The conditions noted are these: 2 μg/mL, 37° C., 120 minutes storage. The protocol:
FIG. 5—Human spermatozoa DNA fragmentation after storage for 120 minutes at 37° C. Spermatozoa were stored in Sperm Preparation Medium (ORIGIO, Måløv, Denmark) not supplemented (Control) or supplemented with an mTOR activator (MHY 1485). Spermatozoa were also incubated with an mTOR inhibitor (Rapamycin; Rap) as a negative control. DNA fragmentation was assessed using a Halosperm G2 kit (HALOTECH, Madrid, Spain). Results are presented as mean±standard error of the mean (n=12); Significant results (P<0.05) are indicated as *-vs. Control.
as §2

With `O=[N+]([O-])c1ccc(Nc2nc(N3CCOCC3)nc(N3CCOCC3)n2)cc1` [MHY 1485], the “percentage of viable sperm” value in the series with Human spermatozoa [1] (30 minutes storage, vs time zero) was “maintained the percentage of viable sperm at similar levels as those of time zero”. Further, the sperm viability entry in the series with Human spermatozoa [1] (120 minutes storage) was “capable to preserve sperm viability”. Besides, the “lipid oxidative damage (lipid peroxidation)” value in the series on Human spermatozoa [2] is listed as “not increased”. Moreover, the spermatozoa motility result in the series with Human spermatozoa [3] (120 minutes storage) is reported as “sustaining a higher motility”. Moreover, in the series with Human spermatozoa [3] (during storage), the spermatozoa motility entry was “capable to maintain sperm motile”. Further, in the series on Human spermatozoa [4], the “sperm protein oxidative damage (protein carbonylation)” value was “not increased”. Also, in the series on Human spermatozoa [5] (30 minutes storage), the consumption of hexoses entry is given as “no differences were observed” and the production of lactate entry is recorded as “no differences were observed”. Moreover, in the series with Human spermatozoa [5] (120 minutes storage), the glucose consumption result is recorded as “maintained” and the lactate production result was “increased”. Moreover, the capacitation potential entry in the series with Human spermatozoa [6] (120 minutes storage) was “capable to preserve sperm viability and its capacitation potential”. Besides, the capacitation potential result in the series on Human spermatozoa [6] (during storage) is “sustain its capacitation potential”. Besides, the “sperm DNA integrity (DNA fragmentation)” value in the series on Human spermatozoa [7] is recorded as “DNA remaining fully intact”.
